Experimental data from patent US8609847B2, “Dihydroquinolinone derivatives” (Taisho Pharmaceutical Co., Ltd, priority 2009, dated 2013).

Columns and labels:
human H3 receptor [1] = biological target: T1, human H3 receptor (Homo sapiens, UniProt Q9Y5N1); assay: [35S]GTP-γ-S Binding Test; format: biochemical; details: 50% inhibition of [35S]GTP-γ-S (0.2 nM) binding in presence of 10 nM R(−)-α-methylhistamine; human H3 receptor membrane preparation
T1 construct: purchased Perkin Elmer ES-392-M400UA; host or cells: CHO-K1 cells (recombinant expression), membrane preparation
Protocol: The same human H3 receptor membrane preparation as used in Test Example 1 (7.5 μg protein/200 μl), 3 μM GDP, 10 nM R(−)-α-methylhistamine and a test compound were reacted at 30° C. for 20 minutes. After completion of the reaction, [^35S]GTP-γ-S (0.2 nM) was added and reacted for an additional 30 minutes. After completion of the reaction, the reaction mixture was subjected to suction filtration through a glass filter (GF/C). The glass filter was washed three times with 20 mM HEPES washing solution (pH 7.4) containing 100 mM sodium chloride and 3 mM magnesium chloride. After washing, the glass filter was dried and a scintillator was added thereto, followed by measurement of radioactivity on the filter using a liquid scintillation counter. Binding of [^35S]GTP-γ-S in the absence of R(−)-α-methylhistamine was defined as non-specific binding, and the difference between total binding in the presence of R(−)-α-methylhistamine and non-specific binding was defined as specific binding of [^35S]GTP-γ-S. Fixed concentrations of [^35S]GTP-γ-S (0.2 nM) and R(−)-α-methylhistamine (10 nM) were reacted under the above conditions with each test drug at various concentrations to obtain an inhibition curve. The inhibition curve was used to determine the concentration (IC50) of each test drug required for 50% inhibition of [^35S]GTP-γ-S binding.

human H3 receptor [2] = biological target: T1, human H3 receptor; assay: H3 Receptor Binding Test; details: 50% inhibition of R(−)-α-methyl[3H]histamine (1 nM) binding; membrane preparation of human H3 receptor-expressing CHO-K1 cells
Protocol: A membrane preparation of human H3 receptor-expressing CHO-K1 cells (Perkin Elmer, ES-392-M400UA, 15 μg protein/200 μl), R(−)-α-methyl[^3H]histamine (Amersham, TRK-1017, specific activity: 1.74 TBq/mmol, 1 nM) and a test drug were reacted at room temperature for 1 hour. After completion of the reaction, the reaction mixture was subjected to suction filtration through a 0.3% polyethyleneimine-treated glass filter (GF/C). The glass filter was washed five times with 50 mM Tris-HCl washing solution (pH 7.4) containing 5 mM EDTA. After washing, the glass filter was dried and a scintillator was added thereto, followed by measurement of radioactivity on the filter using a liquid scintillation counter.
Binding of R(−)-α-methyl[^3H]histamine in the presence of 10 μM R(−)-α-methylhistamine was defined as non-specific binding, and the difference between total binding and non-specific binding of R(−)-α-methyl[^3H]histamine was defined as specific binding of R(−)-α-methyl[^3H]histamine. A fixed concentration (1 nM) of R(−)-α-methyl[^3H]histamine was reacted under the above conditions with each test drug at various concentrations to obtain an inhibition curve. The inhibition curve was used to determine the concentration (IC50) of each test drug required for 50% inhibition of R(−)-α-methyl[^3H]histamine binding.

T1 sequence (Q9Y5N1 whole entry): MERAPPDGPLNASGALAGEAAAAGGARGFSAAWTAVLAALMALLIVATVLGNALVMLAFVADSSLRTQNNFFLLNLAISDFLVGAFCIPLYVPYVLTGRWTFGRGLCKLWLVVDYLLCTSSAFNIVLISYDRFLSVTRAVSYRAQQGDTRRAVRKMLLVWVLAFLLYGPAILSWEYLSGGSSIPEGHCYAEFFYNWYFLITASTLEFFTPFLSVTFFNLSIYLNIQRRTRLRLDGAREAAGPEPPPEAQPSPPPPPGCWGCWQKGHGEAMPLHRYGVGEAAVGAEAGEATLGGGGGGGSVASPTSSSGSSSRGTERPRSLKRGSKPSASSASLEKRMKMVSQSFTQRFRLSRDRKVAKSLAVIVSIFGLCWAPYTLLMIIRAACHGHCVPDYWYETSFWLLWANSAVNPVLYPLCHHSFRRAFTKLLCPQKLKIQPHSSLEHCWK

melting point [°C]	IC50 (human H3 receptor [1]) [nM]	IC50 (human H3 receptor [2]) [nM]	SMILES
> 250	–	–	Cl.O=C1CCc2cc(OC3CCN(C4CCC4)CC3)ccc2N1c1ccc(F)cc1
–	0.26	1.4	O=C1CCc2cc(OC3CCN(C4CCC4)CC3)ccc2N1c1cncc(F)c1 [Compound No. 71, 6-[(1-cyclobutylpiperidin-4-yl)oxy]-1-(5-fluoropyridin-3-yl)-3,4-dihydroquinolin-2(1H)-one]
–	0.23	0.8	O=C1CCc2cc(OC3CCN(C4CCC4)CC3)ccc2N1c1ccc(F)cc1 [Compound No. 60, 6-[(1-cyclobutylpiperidin-4-yl)oxy]-1-(4-fluorophenyl)-3,4-dihydroquinolin-2(1H)-one]
–	0.23	1	N#Cc1ccc(N2C(=O)CCc3cc(OC4CCN(C5CCC5)CC4)ccc32)cc1 [Compound No. 73, 4-{6-[(1-cyclobutylpiperidin-4-yl)oxy]-2-oxo-3,4-dihydroquinolin-1(2H)-yl}benzonitrile]
–	0.4	1.6	O=C1CCc2cc(OC3CCN(C4CCC4)CC3)ccc2N1c1cnc2ccccc2c1 [Compound No. 58, 6-[(1-cyclobutylpiperidin-4-yl)oxy]-3,4-dihydro-2H-1,3′-biquinolin-2-one]
–	0.62	8.3	C[C@@H]1CCCN1CCCOc1ccc2c(c1)CCC(=O)N2c1ccc(C(=O)N(C)C)cc1 [Compound No. 13, N,N-dimethyl-4-[6-{3-[(2R)-2-methylpyrrolidin-1-yl]propoxy}-2-oxo-3,4-dihydroquinolin-1(2H)-yl]benzamide]
–	0.16	0.6	O=C1CCc2cc(OC3CCN(C4CCC4)CC3)ccc2N1c1ccccc1 [Compound No. 72, 6-[(1-cyclobutylpiperidin-4-yl)oxy]-1-phenyl-3,4-dihydroquinolin-2(1H)-one]
–	0.28	1.1	C[C@@H]1CCCN1CCCOc1ccc2c(c1)CCC(=O)N2c1ccc(F)cc1 [Compound No. 6, 1-(4-fluorophenyl)-6-{3-[(2R)-2-methylpyrrolidin-1-yl]propoxy}-3,4-dihydroquinolin-2(1H)-one]
–	–	2.2	C[C@@H]1CCCN1CCCOc1ccc2c(c1)CCC(=O)N2c1ccc2c(c1)OCCO2 [Compound No. 43, 1-(2,3-dihydro-1,4-benzodioxin-6-yl)-6-{3-[(2R)-2-methylpyrrolidin-1-yl]propoxy}-3,4-dihydroquinolin-2(1H)-one]
–	–	5.7	C[C@@H]1CCCN1CCCOc1ccc2c(c1)CCC(=O)N2c1ccc(C(=O)N2CCCC2)cc1 [Compound No. 14, 6-{3-[(2R)-2-methylpyrrolidin-1-yl]propoxy}-1-[4-(pyrrolidin-1-ylcarbonyl)phenyl]-3,4-dihydroquinolin-2(1H)-one]
–	–	9.8	O=C1CCc2cc(OC3CCN(CC4CC4)CC3)ccc2N1c1ccc(F)cc1 [Compound No. 76, 6-{[1-(cyclopropylmethyl)piperidin-4-yl]oxy}-1-(4-fluorophenyl)-3,4-dihydroquinolin-2(1H)-one]
–	–	4.4	C[C@@H]1CCCN1CCCOc1ccc2c(c1)CCC(=O)N2c1cnc2cccnc2c1 [Compound No. 39, 6-{3-[(2R)-2-methylpyrrolidin-1-yl]propoxy}-1-(1,5-naphthylizin-3-yl)-3,4-dihydroquinolin-2(1H)-one]
–	0.2	0.65	O=C1CCc2cc(OC3CCN(C4CCC4)CC3)ccc2N1c1cccc(F)c1 [Compound No. 69, 6-[(1-cyclobutylpiperidin-4-yl)oxy]-1-(3-fluorophenyl)-3,4-dihydroquinolin-2(1H)-one]
–	–	2.9	Cc1ccc(N2C(=O)CCc3cc(OCCCN4CCC[C@H]4C)ccc32)cn1 [Compound No. 47, 1-(6-methylpyridin-3-yl)-6-{3-[(2R)-2-methylpyrrolidin-1-yl]propoxy}-3,4-dihydroquinolin-2(1H)-one]
–	–	2.7	Cc1ccc(N2C(=O)CCc3cc(OCCCN4CCC[C@H]4C)ccc32)cc1C#N [Compound No. 32, 2-methyl-5-[6-{3-[(2R)-2-methylpyrrolidin-1-yl]propoxy}-2-oxo-3,4-dihydroquinolin-1(2H)-yl]benzonitrile]
–	–	1.2	C[C@@H]1CCCN1CCCOc1ccc2c(c1)CCC(=O)N2c1cncc(F)c1 [Compound No. 52, 1-(5-fluoropyridin-3-yl)-6-{3-[(2R)-2-methylpyrrolidin-1-yl]propoxy}-3,4-dihydroquinolin-2(1H)-one]
–	0.21	0.68	C[C@@H]1CCCN1CCCOc1ccc2c(c1)CCC(=O)N2c1ccc(CN(C)C)cc1 [Compound No. 12, 1-{4-[(dimethylamino)methyl]phenyl}-6-{3-[(2R)-2-methylpyrrolidin-1-yl]propoxy}-3,4-dihydroquinolin-2(1H)-one]
–	–	2.3	C[C@@H]1CCCN1CCCOc1ccc2c(c1)CCC(=O)N2c1ccc2c(c1)OCC2 [Compound No. 45, 1-(2,3-dihydro-1-benzofuran-6-yl)-6-{3-[(2R)-2-methylpyrrolidin-1-yl]propoxy}-3,4-dihydroquinolin-2(1H)-one]
–	–	13	C[C@@H]1CCCN1CCCOc1ccc2c(c1)CCC(=O)N2c1ncccc1C#N [Compound No. 51, 2-[6-{3-[(2R)-2-methylpyrrolidin-1-yl]propoxy}-2-oxo-3,4-dihydroquinolin-1(2H)-yl]pyridine-3-carbonitrile]
